From paper PMC11249646, “Small-Molecule Disruptors of the Interaction between Calcium- and Integrin-Binding Protein 1 and Integrin αIIbβ3 as Novel Antiplatelet Agents” (ACS Pharmacology & Translational Science, 2024)
Where two headings read alike, the source gives them in different places.

What was measured:
[1] = target: T1, GST-CIB1 : F-scrambled peptide (Homo sapiens, UniProt Q99828); experiment: FP scrambled-peptide counter screen, 1536-well format; format: binding; conditions: for IC50: read-out: IC50 [μM] (counterscreen)
T1 construct: made in house; host or cells: BL-21 plus RIL cells (E. coli)
T1 sequence (Q99828 1-191): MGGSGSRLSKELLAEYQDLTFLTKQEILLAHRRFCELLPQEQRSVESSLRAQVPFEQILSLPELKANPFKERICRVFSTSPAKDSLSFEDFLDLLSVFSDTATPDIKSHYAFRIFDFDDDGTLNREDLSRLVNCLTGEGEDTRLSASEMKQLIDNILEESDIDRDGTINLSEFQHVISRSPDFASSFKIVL

[2] = target: T2, CIB1 and αIIb interaction (CIB1-GST : F-αIIb peptide) (Homo sapiens, UniProt Q99828); experiment: FP assay, 1536-well qHTS format (primary and confirmatory screen); format: binding
T2 construct: made in house; host or cells: BL-21 plus RIL cells (E. coli)
T2 sequence (Q99828 1-191): T1 sequence (Q99828 1-191)

[3] = counterscreen, qHTS curve class, negative sign = inhibitory curve
[4] = confirmatory screen, qHTS curve class, negative sign = inhibitory curve
[5] = confirmatory screen, read-out: IC50 [μM] (confirmatory screen)
[6] = qHTS primary screen hits, Table S2, negative = inhibition
[7] = qHTS primary screen hits, Table S2, negative sign = inhibitory curve, several classes where COUNT > 1
[8] = qHTS primary screen hits, Table S2, read-out: IC50
[9] = Table S3, counterscreen, qHTS curve class, a negative sign marks inhibitory curves
[10] = Table S3, counterscreen, negative = inhibition
[11] = Table S3, confirmatory screen, YES/NO call
[12] = Table S3, confirmatory screen, qHTS curve class, a negative sign marks inhibitory curves
[13] = Table S3, confirmatory screen, negative = inhibition
[14] = Table S3, confirmatory screen, read-out: IC50 [μM] (confirmatory screen)
[15] = qHTS FP screen hits, Table S2, negative = inhibition
[16] = qHTS FP screen hits, Table S2, one class per curve where COUNT > 1, negative sign = inhibitory curve
[17] = qHTS FP screen hits, Table S2, read-out: IC50
[18] = Table S3, counterscreen, YES/NO call

| Structure (SMILES) | Efficacy (%) (counterscreen) ([1]; counterscreen) | Curve Class (counterscreen) [1, 3] | IC50 ([1]; counterscreen) [µM] | Efficacy (%) (confirmatory screen) ([2]; confirmatory screen) | Confirm? (confirmatory screen) ([2]; confirmatory screen, YES/NO) | Curve Class (confirmatory screen) [2, 4] | IC50 [2, 5] [µM] | Efficacy (%) [2, 6] [%] | Curve Class [2, 7] | IC50 [2, 8] [µM] | Curve Class (counterscreen) [1, 9] | Efficacy (%) (counterscreen) [1, 10] | IC50 ([1]; Table S3, counterscreen) [µM] | Curve Class (confirmatory screen) [2, 12] | Efficacy (%) (confirmatory screen) [2, 13] | further results |
| --- | --- | --- | --- | --- | --- | --- | --- | --- | --- | --- | --- | --- | --- | --- | --- | --- |
| Cl.O=[N+]([O-])c1ccc(CNc2ccc(S(=O)(=O)Nc3nccs3)cc2)c(O)c1 [NCGC00273519-01] | -48 | -2.2 | 25.1 | -67 | YES | -2.4 | 12.6 | -24 | -1.4 | 7.9 | – | – | – | – | – | – |
| CC(=O)c1c(O)cc2cccc3c2c1CC(C)(O)O3 (stereo not drawn) [NCGC00381142-01] | – | – | – | – | – | – | – | – | – | – | -2.1 | -99 | 39.8 | -2.2 | -84 | Confirm? (confirmatory screen) [2, 11]: YES; IC50 [2, 14]: 39.8 µM; Efficacy (%) [2, 15]: -51%; Curve Class [2, 16]: -2.2; IC50 [2, 17]: 50.1 µM |
| CN(C)c1ccc(NC(=S)N/N=C2\C(=O)Nc3ccccc32)cc1.O=C(O)C(F)(F)F [NCGC00229526-01] | -44 | -1.2 | 22.4 | -73 | YES | -1.4 | 10 | -38 | -1.2 | 3.5 | – | – | – | – | – | – |
| C=CC1=C(C)c2cc3[nH]c(cc4nc(cc5[nH]c(cc1n2)c(C)c5CCC(=O)O)C(CCC(=O)O)=C4C)c(C)c3C=C [NCGC00015844-07] | -94 | -2.2 | 25.1 | -112 | YES | -1.1 | 25.1 | – | – | – | – | – | – | – | – | – |
| CN(CC(=O)Nc1ccc(N2CCOCC2)cc1)Cc1c(O)ccc2ccccc12.O=C(O)C(F)(F)F [NCGC00229682-01] | – | – | – | – | – | – | – | -68 | -2.2 | 39.8 | -2.2 | -57 | 70.8 | 4 | -47 | Confirm? (counterscreen) [1, 18]: YES |
| Cl.O=S(=O)(Nc1nccs1)c1ccc(NCc2cc(Cl)ccc2O)cc1 [NCGC00273561-01] | -36 | 4 | – | -48 | YES | -2.4 | 50.1 | -27 | -1.4 | 20 | – | – | – | – | – | Confirm? (counterscreen) ([1]; counterscreen, YES/NO): YES |
| Cc1ccccc1C(=O)N1CCc2cc(-c3nc(NC(=O)Cc4ccc(OCCOCCOCCN)cc4)sc3C)ccc21.O=C(O)C(F)(F)F [NCGC00351618-01] | -31 | -2.4 | 11.2 | -41 | YES | -1.2 | 39.8 | -25 | -1.4 | 17.8 | – | – | – | – | – | – |
| CC1(C)OB(c2ccc(O)c3ncc(N4CCNCC4)cc23)OC1(C)C.O=C(O)C(F)(F)F [NCGC00241053-01] | -102 | -1.1 | 20 | -132 | YES | -2.1 | 31.6 | -78 | -2.2 | 50.1 | – | – | – | – | – | – |
| CN(C)CCc1c[nH]c2cccc(O)c12 [NCGC00247728-01] | – | – | – | – | – | – | – | -105 | -2.3 | 28.2 | -2.1 | -126 | 89.1 | -2.2 | -101 | Confirm? (confirmatory screen) [2, 11]: YES; IC50 [2, 14]: 112 µM |
| Cc1coc2c1C(=O)C(=O)c1c-2ccc2c1CCCC2(C)C [NCGC00095709-08] | – | – | – | – | – | – | – | – | – | – | -2.2 | -67 | 39.8 | -1.2 | -67 | Confirm? (confirmatory screen) [2, 11]: YES; IC50 [2, 14]: 39.8 µM; Efficacy (%) [2, 15]: -65%; Curve Class [2, 16]: -2.2; IC50 [2, 17]: 79.4 µM |
| O=C(NNC(=O)c1nc2ccccc2[nH]1)OCc1ccccc1 [NCGC00181216-01] | – | – | – | – | – | – | – | -24 | -2.4 | 22.4 | 4 | -28 | – | 4 | -25 | – |
| CC(C)c1ccccc1Cc1cc(C(=O)Nc2ccc(S(=O)(=O)c3ccccc3C(C)(C)C)cc2)c(O)c(O)c1O [NCGC00263208-01] | -40 | -1.2 | 15.8 | -56 | YES | -1.2 | 14.1 | -27 | – | 15.2 | – | – | – | – | – | Curve Class ([2]; qHTS primary screen hits, Table S2, negative sign = inhibitory curve): -2.4 |
| CN1CCN(c2ccc(-c3cc(O)c4ncccc4c3)cc2)CC1.O=C(O)C(F)(F)F [NCGC00183803-01] | – | – | – | – | – | – | – | – | – | – | – | – | – | – | – | COUNTERSCREEN Efficacy (%) ([1]; counterscreen): -12%; COUNTERSCREEN Curve Class ([1]; counterscreen, qHTS curve class): 4; CONFIRMATORY SCREEN Efficacy (%) ([2]; confirmatory screen): -13%; CONFIRMATORY SCREEN Curve Class ([2]; confirmatory screen, qHTS curve class): 4; Efficacy (%) [2, 15]: -51%; IC50 [2, 17]: 39.8 µM |
| CC(=O)NC(Cc1ccccc1)C(=O)O (stereo not drawn) [NCGC00042134-05] | – | – | – | – | – | – | – | – | – | – | 4 | -35 | – | 4 | 0 | Efficacy (%) [2, 15]: -47%; Curve Class [2, 16]: -2.2; IC50 [2, 17]: 100 µM |
| C/C(=C\c1ccc2c(c1)OCO2)C1Nc2cccc3cccc(c23)N1 [NCGC00182904-03] | – | – | – | – | – | – | – | -34 | -2.4 | 35.5 | -1.2 | -77 | 12.6 | 4 | -33 | Confirm? (counterscreen) [1, 18]: YES |
| O=C1Nc2cc(Cl)ccc2Nc2cscc21 [NCGC00167991-01] | -57 | -3 | 50.1 | -75 | YES | -3 | – | -66 | -2.2 | 79.4 | – | – | – | – | – | – |
